Experimental data from patent US12187709B2 (Genentech, Inc., priority 2021, dated 2025).

Tests used:
Cbl-b = Cbl-b (Homo sapiens (Human), UniProt Q13191); test: Cbl-b LCK Ub TR-FRET assay (Cbl-b Lck HTRF); format: biochemical; conditions: for IC50: Cbl-b LCK Ub TR-FRET; for fold-selectivity (Cbl-b over C-cbl) / (fold-selectivity) Cbl-b and C-Cbl Selectivity: ratio C-cbl Lck HTRF IC50 / Cbl-b Lck HTRF IC50
Outline: (§1)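 After the ubiquitination reaction, detection mixture was added and plates incubated 20 min at room temperature before reading. IC50 values were calculated with wells lacking LCK as the low control and DMSO as the high control.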

c-Cbl = c-Cbl (Homo sapiens (Human), UniProt P22681); test: C-Cbl LCK Ub TR-FRET assay (C-cbl Lck HTRF); format: biochemical
Chain of c-Cbl (P22681 47-435): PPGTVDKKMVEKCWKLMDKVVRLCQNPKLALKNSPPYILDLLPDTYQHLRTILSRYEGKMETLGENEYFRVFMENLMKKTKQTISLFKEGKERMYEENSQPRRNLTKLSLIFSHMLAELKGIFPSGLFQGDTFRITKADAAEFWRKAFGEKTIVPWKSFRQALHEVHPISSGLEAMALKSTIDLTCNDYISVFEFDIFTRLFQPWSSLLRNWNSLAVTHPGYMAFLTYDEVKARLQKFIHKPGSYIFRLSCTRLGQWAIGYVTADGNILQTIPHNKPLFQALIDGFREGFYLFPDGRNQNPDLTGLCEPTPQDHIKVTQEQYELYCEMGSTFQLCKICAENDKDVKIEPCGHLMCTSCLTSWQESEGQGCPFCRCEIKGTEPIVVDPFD
Outline: as §1

c-Cbl (residues 47-435) = c-Cbl (residues 47-435) (Homo sapiens (Human), UniProt P22681); test: c-Cbl SPR assay; format: binding; conditions: 20° C.
Chain of c-Cbl (residues 47-435) (P22681 47-435): as above
Outline: (§2)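 Protein captured at 1300-1500 RU; compounds run as 6-point 2-fold series in multi-cycle kinetics (60 s contact, 40 μl/min, 120-1200 s dissociation), fitted 1:1. For slow binders, kd came from chaser-compound occupancy over time, fixed in a single-cycle fit (5 concentrations, top 500 nM).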

[1] = target: Human Cbl-b (residues 40-426) (Homo sapiens (Human), UniProt Q13191); test: Cbl-b SPR assay; format: binding; conditions: for Fold of selectivity: C-cbl SPR Kd vs Cbl-b SPR Kd; for Kd: SPR, 20° C.
Chain of Human Cbl-b (residues 40-426) (Q13191 40-426): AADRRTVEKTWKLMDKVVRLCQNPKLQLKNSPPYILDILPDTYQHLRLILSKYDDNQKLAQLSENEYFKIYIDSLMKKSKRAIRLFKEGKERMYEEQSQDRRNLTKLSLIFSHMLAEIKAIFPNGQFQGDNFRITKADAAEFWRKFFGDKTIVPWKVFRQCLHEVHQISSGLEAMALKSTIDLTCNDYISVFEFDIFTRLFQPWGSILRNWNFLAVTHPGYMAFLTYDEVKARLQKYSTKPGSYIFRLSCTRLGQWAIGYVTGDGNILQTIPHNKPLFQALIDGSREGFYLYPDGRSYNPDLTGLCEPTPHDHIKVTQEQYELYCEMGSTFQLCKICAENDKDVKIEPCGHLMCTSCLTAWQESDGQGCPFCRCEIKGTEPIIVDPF
Outline: as §2

Chain of Cbl-b (Q13191 40-426): as above

IC50 (Cbl-b) | fold-selectivity (Cbl-b over C-cbl) (Cbl-b) | IC50 (c-Cbl) | Kd (c-Cbl (residues 47-435)) | Fold of selectivity [1] | Kd [1] | IC50 (Cbl-b; Example 121) | (fold-selectivity) Cbl-b and C-Cbl Selectivity (Cbl-b) | Structure (SMILES)
150 nM | 4.9x | 730 nM | 660 nM | 7.7× | 83 nM |  |  | COC1CC([C@@H](c2cccc(N3Cc4c(cc(CNC5(C)CCC5)cc4C(F)(F)F)C3=O)c2)c2nncn2C)C1 (single isomer, unassigned) [Compound 133]
410 nM | 6.5x | 2800 nM | 2300 nM | 10× | 230 nM |  |  | Cn1cnnc1C1(c2cccc(N3Cc4c(cc(CNC5(C)CCC5)cc4C(F)(F)F)C3=O)c2)CCOCC1 [Compound 282, 2-(3-(4-(4-methyl-4H-1,2,4-triazol-3-yl)tetrahydro-2H-pyran-4-yl)phenyl)-6-(((1-methylcyclobutyl)amino)methyl)-4-(trifluoromethyl)isoindolin-1-one]
18 nM | 2.1x | 38 nM | 21 nM | 3.3× | 6.4 nM |  |  | CCOc1cc(N2Cc3c(cc(CNC4(C)CCC4)cc3C(F)(F)F)C2=O)cc([C@]2(c3nncn3C)C[C@@H](OC)C2)c1 [Compound 203, 2-(3-ethoxy-5-((1s,3s)-3-methoxy-1-(4-methyl-4H-1,2,4-triazol-3-yl)cyclobutyl)phenyl)-6-(((1-methylcyclobutyl)amino)methyl)-4-(trifluoromethyl)isoindolin-1-one]
36 nM | 2.4x | 84 nM | 110 nM | 7.6× | 15 nM |  |  | Cn1cnnc1[C@]1(c2cc(OC3CCCC3)cc(N3Cc4c(cc(CNC5(C)CCC5)cc4C(F)(F)F)C3=O)c2)C[C@@H](C)C1 [Compound 195, 2-(3-(cyclopentyloxy)-5-((1r,3r)-3-methyl-1-(4-methyl-4H-1,2,4-triazol-3-yl)cyclobutyl)phenyl)-6-(((1-methylcyclobutyl)amino)methyl)-4-(trifluoromethyl)isoindolin-1-one]
5.6 nM | 1.3x | 7.5 nM | 2.2 nM | 5.5× | 0.4 nM |  |  | Cn1cnnc1[C@H](c1cccc(N2Cc3c(Cl)cc(CNC4(C)CCC4)cc3C2=O)c1)[C@H]1C[C@H](F)C1 (single isomer, unassigned) [Compound 320]
8.8 nM | 1.9x | 16 nM | 16 nM | 6.0× | 2.7 nM |  |  | Cn1cnnc1[C@H](c1cccc(N2Cc3c(cc(CNC4(C)CCC4)cc3C(F)(F)F)C2=O)c1)C1(F)COC1 (single isomer, unassigned) [Compound 381]
 |  | 7.1 nM | 1.5 nM | 3.6× | 0.4 nM | 5.5 nM | 1.3x | Cn1cnnc1[C@@H](c1cccc(N2Cc3c(cc([C@H](NC4(C)CCC4)C4CCC4)cc3C(F)(F)F)C2=O)c1)C1COC1 (single isomer, unassigned) [Compound 432]
11 nM | 1.5x | 16 nM | 7.6 nM | 5.8× | 1.3 nM |  |  | CO[C@H]1C[C@](c2cc(N[C@H](C)CC#N)cc(N3Cc4c(cc(CNC5(C)CCC5)cc4C(F)(F)F)C3=O)c2)(c2nncn2C)C1 (single isomer, unassigned) [Compound 221]
530 nM | 12x | 6000 nM | 8100 nM | 17× | 490 nM |  |  | CC(=O)N(C)[C@H](c1cccc(N2Cc3c(cc(CNC4(C)CCC4)cc3C(F)(F)F)C2=O)c1)c1nncn1C (single isomer, unassigned) [Compound 399]
4.6 nM | 0.8x | 3.8 nM | 1.4 nM | 2.4× | 0.65 nM |  |  | CC[C@@](F)(c1cccc(N2Cc3c(cc(CNC4(C)CCC4)cc3C(F)(F)F)C2=O)c1)c1nncn1C (single isomer, unassigned) [Compound 394]
10 nM | 1.8x | 18 nM | 10 nM | 5.4× | 1.9 nM |  |  | Cn1cnnc1[C@H](c1cccc(N2Cc3c(cc(CNC4(C)CCC4)cc3C(F)(F)F)C2=O)c1)C1CC(OCC(F)F)C1 (single isomer, unassigned) [Compound 263]
 |  | 1600 nM | 1800 nM | 5.3× | 340 nM | 220 nM | 7.2x | CO[C@H]1C[C@](c2cccc(N3Cc4c(cc(CN5CC(O)C5)cc4C(F)(F)F)C3=O)c2)(c2nncn2C)C1 [Compound 422, 6-((3-hydroxyazetidin-1-yl)methyl)-2-(3-((1r,3r)-3-methoxy-1-(4-methyl-4H-1,2,4-triazol-3-yl)cyclobutyl)phenyl)-4-(trifluoromethyl)isoindolin-1-one]
100 nM | 5.0x | 500 nM | 300 nM | 6.9× | 49 nM |  |  | Cn1cnnc1[C@H](CC1CCCC1)c1cccc(N2Cc3c(cc(CNC4(C)CCC4)cc3C(F)(F)F)C2=O)c1 [Compound 249, (R)-2-(3-(2-cyclopentyl-1-(4-methyl-4H-1,2,4-triazol-3-yl)ethyl)phenyl)-6-(((1-methylcyclobutyl)amino)methyl)-4-(trifluoromethyl)isoindolin-1-one]
29 nM | 6.1x | 180 nM | 210 nM | 11× | 19 nM |  |  | Cn1cnnc1C(c1cccc(N2Cc3c(cc(CNC4(C)CCC4)cc3C(F)(F)F)C2=O)c1)[C@H]1C[C@H](Cl)C1 (single isomer, unassigned) [Compound 356]
6.4 nM | 0.68x | 4.4 nM | 0.8 nM | 4.0× | 0.2 nM |  |  | CC[C@H](NC1(C)CCC1)c1cc2c(c(C(F)(F)F)c1)CN(c1cccc([C@H](c3nncn3C)C3COC3)c1)C2=O [Compound 313, 2-(3-((R)-(4-methyl-4H-1,2,4-triazol-3-yl)(oxetan-3-yl)methyl)phenyl)-6-((S)-1-((1-methylcyclobutyl)amino)propyl)-4-(trifluoromethyl)isoindolin-1-one]
130 nM | 4.0x | 530 nM | 270 nM | 8.6× | 34 nM |  |  | CO[C@H]1C[C@@](c2cc(OC3COC3)cc(N3Cc4c(cc(CNC5(C)CCC5)cc4C(F)(F)F)C3=O)c2)(c2nncn2C)C1 [Compound 241, 2-(3-((1s,3s)-3-methoxy-1-(4-methyl-4H-1,2,4-triazol-3-yl)cyclobutyl)-5-(oxetan-3-yloxy)phenyl)-6-(((1-methylcyclobutyl)amino)methyl)-4-(trifluoromethyl)isoindolin-1-one]
25 nM | 6.0x | 150 nM | 110 nM | 15× | 8.1 nM |  |  | CO[C@H]1C[C@@](c2cccc(N3Cc4c(cc(CNC5(C)CCC5)cc4C(F)F)C3=O)c2)(c2nncn2C)C1 [Compound 116, 4-(difluoromethyl)-2-(3-((1s,3s)-3-methoxy-1-(4-methyl-4H-1,2,4-triazol-3-yl)cyclobutyl)phenyl)-6-(((1-methylcyclobutyl)amino)methyl)isoindolin-1-one]
